Columns and labels:
[1] = tested on: HuPrime model LI6280 human liver cancer; assay: In vivo pharmacodynamics, liver cancer LI6280 PDX model; design: species or system BALB/c nude mice; conditions: for Tumor volume: 4.5 mg/kg i.v.
Procedure: Experiment Instruction: BALB/c nude mice were subcutaneously inoculated with HuPrime® model LI6280 tumour blocks to establish a subcutaneous transplantation tumour model of human liver cancer. […] The efficacy was evaluated according to the relative tumor inhibition rate TGI (%), and the safety was evaluated according to the change in body weight and the death of the animals.

[2] = tested on: human liver cancer HepG2 cells; assay: In vivo pharmacodynamics, liver cancer HepG2 CDX model; design: species or system BALB/c nude mice; conditions: for Tumor volume (x ± S): in mm³ (unit assumed)
Procedure: Experiment Instruction: BALB/c nude mice were subcutaneously inoculated with human liver cancer HepG2 cells to establish a subcutaneous transplantation tumor model of human liver cancer. […] The efficacy was evaluated according to the relative tumor inhibition rate TGI (%), and the safety was evaluated according to the change in body weight and the death of the animals.

[3] = MTD assay of AST-3424, single 30 min intravenous drip; format: in vivo, machins; conditions: for maximal tolerance dose: single dose; for day of test substance-related death: male
Procedure: The maximal tolerance dose in machins after a single administration of AST-3424 injection by intravenous drip for 30 minutes was evaluated.

[4] = 1.25 mg/kg, QDx5, 2 days off, 2 weeks off, QDx5, i.p., Day 53
[5] = 2.5 mg/kg, QDx5, 2 days off, 2 weeks off, QDx5, i.p., Day 53
[6] = 5 mg/kg, QDx5, 2 days off, 2 weeks off, QDx5, i.p., Day 53
[7] = 5 mg/kg, QWx2, 1 week off, QWx2, i.v., Day 53
[8] = 10 mg/kg, QWx2, 1 week off, QWx2, i.v., Day 53

SMILES: O=[N+]([O-])c1ccc(C(OP(=O)(N2CC2)N2CC2)C(F)(F)F)cc1Oc1ccc(-c2ccc(F)cc2)c(F)c1 (racemic) [Compound A]
- Relative tumor volume (x ± S) ([1]; 4.5 mg/kg i.v. QWx3, Day 17): 20.79 ± 1.15
- T/C (%) ([1]; 4.5 mg/kg i.v. QWx3, Day 17): 101.41%
- TGI (%) ([1]; 4.5 mg/kg i.v. QWx3, Day 17): −1.41%
- Tumor volume (x ± S) ([1]; 4.5 mg/kg i.v. QWx3, Day 17, in mm³ (unit assumed)): 2201.20 ± 287.44
- Tumor volume ([1]; Day 0): 103.98 mm^3
- Tumor volume ([1]; Day 3): 150.33 mm^3
- Tumor volume ([1]; Day 7): 318.74 mm^3
- Tumor volume ([1]; Day 10): 683.99 mm^3
- Tumor volume ([1]; Day 14): 1404.42 mm^3
- Tumor volume ([1]; Day 17): 2201.20 mm^3
- Tumor volume ([1]; Day 21): 2739.12 mm^3
- Tumor volume ([1]; Day 24): 3311.77 mm^3
- Tumor volume ([1]; Day 28): 3362.07 mm^3
- Tumor volume ([2]; 1.25 mg/kg i.p., Day 19): 189.54 mm^3
- Tumor volume ([2]; 1.25 mg/kg i.p., Day 22): 315.41 mm^3
- Tumor volume ([2]; 1.25 mg/kg i.p., Day 24): 351.74 mm^3
- Tumor volume ([2]; 1.25 mg/kg i.p., Day 27): 383.10 mm^3
- Tumor volume ([2]; 1.25 mg/kg i.p., Day 31): 366.64 mm^3
- Tumor volume ([2]; 1.25 mg/kg i.p., Day 36): 416.27 mm^3
- Tumor volume ([2]; 1.25 mg/kg i.p., Day 39): 586.80 mm^3
- Tumor volume ([2]; 1.25 mg/kg i.p., Day 42): 782.39 mm^3
- Tumor volume ([2]; 1.25 mg/kg i.p., Day 46): 886.97 mm^3
- Tumor volume ([2]; 1.25 mg/kg i.p., Day 49): 975.41 mm^3
- Tumor volume ([2]; 1.25 mg/kg i.p., Day 53): 1066.23 mm^3
- Relative tumor volume (x ± S) [2, 4]: 5.57 ± 1.26
- T/C (%) [2, 4]: 47.03%
- TGI (%) [2, 4]: 52.97%
- Tumor volume (x ± S) [2, 4]: 1066.23 ± 252.18
- Tumor volume ([2]; 2.5 mg/kg i.p., Day 19): 189.31 mm^3
- Tumor volume ([2]; 2.5 mg/kg i.p., Day 22): 292.03 mm^3
- Tumor volume ([2]; 2.5 mg/kg i.p., Day 24): 360.14 mm^3
- Tumor volume ([2]; 2.5 mg/kg i.p., Day 27): 373.23 mm^3
- Tumor volume ([2]; 2.5 mg/kg i.p., Day 31): 405.67 mm^3
- Tumor volume ([2]; 2.5 mg/kg i.p., Day 36): 392.90 mm^3
- Tumor volume ([2]; 2.5 mg/kg i.p., Day 39): 342.04 mm^3
- Tumor volume ([2]; 2.5 mg/kg i.p., Day 42): 399.84 mm^3
- Tumor volume ([2]; 2.5 mg/kg i.p., Day 46): 417.54 mm^3
- Tumor volume ([2]; 2.5 mg/kg i.p., Day 49): 456.60 mm^3
- Tumor volume ([2]; 2.5 mg/kg i.p., Day 53): 417.76 mm^3
- Relative tumor volume (x ± S) [2, 5]: 2.19 ± 0.52
- T/C (%) [2, 5]: 18.46%
- TGI (%) [2, 5]: 81.54%
- Tumor volume (x ± S) [2, 5]: 417.76 ± 105.16
- euthanasia owing to BWL>20% ([2]; 5 mg/kg QDx5, 2 days off, 2 weeks off, QDx5, i.p. (Group 7)): one mouse was euthanized
- death ([2]; 5 mg/kg QWx2, 1 week off, QWx2, i.v. (Group 3)): one mouse in this group suffered death
- Tumor volume ([2]; 5 mg/kg i.p., Day 19): 189.64 mm^3
- Tumor volume ([2]; 5 mg/kg i.p., Day 22): 259.29 mm^3
- Tumor volume ([2]; 5 mg/kg i.p., Day 24): 280.24 mm^3
- Tumor volume ([2]; 5 mg/kg i.p., Day 27): 286.22 mm^3
- Tumor volume ([2]; 5 mg/kg i.p., Day 31): 290.75 mm^3
- Tumor volume ([2]; 5 mg/kg i.p., Day 36): 293.88 mm^3
- Tumor volume ([2]; 5 mg/kg i.p., Day 39): 247.49 mm^3
- Tumor volume ([2]; 5 mg/kg i.p., Day 42): 224.58 mm^3
- Tumor volume ([2]; 5 mg/kg i.p., Day 46): 215.32 mm^3
- Tumor volume ([2]; 5 mg/kg i.p., Day 49): 234.89 mm^3
- Tumor volume ([2]; 5 mg/kg i.p., Day 53): 189.84 mm^3
- Tumor volume ([2]; 5 mg/kg i.v., Day 19): 191.48 mm^3
- Tumor volume ([2]; 5 mg/kg i.v., Day 22): 315.19 mm^3
- Tumor volume ([2]; 5 mg/kg i.v., Day 24): 360.12 mm^3
- Tumor volume ([2]; 5 mg/kg i.v., Day 27): 390.21 mm^3
- Tumor volume ([2]; 5 mg/kg i.v., Day 31): 373.82 mm^3
- Tumor volume ([2]; 5 mg/kg i.v., Day 36): 314.44 mm^3
- Tumor volume ([2]; 5 mg/kg i.v., Day 39): 283.08 mm^3
- Tumor volume ([2]; 5 mg/kg i.v., Day 42): 276.88 mm^3
- Tumor volume ([2]; 5 mg/kg i.v., Day 46): 233.11 mm^3
- Tumor volume ([2]; 5 mg/kg i.v., Day 49): 145.58 mm^3
- Tumor volume ([2]; 5 mg/kg i.v., Day 53): 136.44 mm^3
- Relative tumor volume (x ± S) [2, 6]: 0.99 ± 0.38
- T/C (%) [2, 6]: 8.33%
- TGI (%) [2, 6]: 91.67%
- Tumor volume (x ± S) [2, 6]: 189.84 ± 72.81
- Relative tumor volume (x ± S) [2, 7]: 0.70 ± 0.34
- T/C (%) [2, 7]: 5.92%
- TGI (%) [2, 7]: 94.08%
- Tumor volume (x ± S) [2, 7]: 136.44 ± 66.47
- weight loss or death ([2]; 10 mg/kg i.v. (Group 4) and 2.5 mg/kg i.p. (Group 6)): did not cause severe weight loss or death
- Tumor volume ([2]; 10 mg/kg i.v., Day 19): 191.97 mm^3
- Tumor volume ([2]; 10 mg/kg i.v., Day 22): 314.32 mm^3
- Tumor volume ([2]; 10 mg/kg i.v., Day 24): 375.81 mm^3
- Tumor volume ([2]; 10 mg/kg i.v., Day 27): 427.75 mm^3
- Tumor volume ([2]; 10 mg/kg i.v., Day 31): 386.68 mm^3
- Tumor volume ([2]; 10 mg/kg i.v., Day 36): 347.85 mm^3
- Tumor volume ([2]; 10 mg/kg i.v., Day 39): 312.31 mm^3
- Tumor volume ([2]; 10 mg/kg i.v., Day 42): 252.78 mm^3
- Tumor volume ([2]; 10 mg/kg i.v., Day 46): 197.45 mm^3
- Tumor volume ([2]; 10 mg/kg i.v., Day 49): 142.21 mm^3
- Tumor volume ([2]; 10 mg/kg i.v., Day 53): 88.20 mm^3
- Relative tumor volume (x ± S) [2, 8]: 0.45 ± 0.15
- T/C (%) [2, 8]: 3.83%
- TGI (%) [2, 8]: 96.17%
- Tumor volume (x ± S) [2, 8]: 88.20 ± 29.95
- complete cure ([2]; one mouse in each of Groups 3, 4, 7): completely cured

SMILES: C[C@@H](OP(=O)(N1CC1)N1CC1)c1ccc([N+](=O)[O-])c(Oc2cccc(C(=O)N(C)C)c2)c1 [AST-3424]
- maximal tolerance dose ([3]; female machins): 1.5 mg/kg
- clinical observation ([3]; female monkeys, 1.5 mg/kg): weight loss, decreased food consumption, diarrhoea and vomiting
- maximal tolerance dose ([3]; male machins): 0.5 mg/kg
- day of test substance-related death ([3]; 1.0 mg/kg): 16 days
- day of test substance-related death ([3]; 1.5 mg/kg): 8 days
- doses at which death of male monkeys was observed ([3]; single intravenous drip 30 minutes): ≥ 1.0 mg/kg

Reference: patent US20260159536A1, “AKR1C3-ACTIVATED DNA ALKYLATING AGENT, AND MEDICAL APPLICATION THEREOF” (ASCENTAWITS PHARMACEUTICALS, LTD., priority 2021, published 2026)
